In patent publication US12109266B2, “Modulating gabarap to modulate immunogenic cell death” (Dana-Farber Cancer Institute, Inc., priority 2020, dated 2024):
Entries after “also recorded” stand apart in the source; their conditions may differ.

Experiments:
[1] = test system: 5TGM1 multiple myeloma cell line; test: Apoptosis assay (Annexin-V/7-AAD flow cytometry); format: cell-based, murine
Experimental: (§1) Apoptosis was evaluated by Annexin-V/7-Aminoactinomycin D (7-AAD) staining and flow cytometric analysis using the PE Annexin V Apoptosis Detection Kit I (BD Biosciences), following the manufacturer's instructions.
(§2) Apoptosis was evaluated by Annexin-V/7-Aminoactinomycin D (7-AAD) staining and flow cytometric analysis using the PE Annexin V Apoptosis Detection Kit I (BD Biosciences).

[2] = test system: AMO1 and NCI-H929 MM cells; test: Micronuclei assay (flow cytometry); format: cell-based, human; details: AMO1 (0-7.5 nM) and NCI-H929 (0-5 nM), 16 h
Experimental: Cells were analyzed for micronuclei formation using a flow cytometry-based Micronucleus Assay (MicroFlow kit), according to manufacturer's protocol. Briefly, nonviable cells were removed by Ficoll gradient centrifugation. Viable cells were then stained with photoactivated Nucleic Acid Dye A (ethidium monoazide) that crosses the compromised outer membrane of apoptotic and necrotic cells and stains them red. Cells were then washed twice and lysed with a detergent containing buffer to break open cytoplasmic membranes and release nuclei and micronuclei. Nucleic Acid Dye B (SYTOX green) is then added to label DNA from both nuclei and micronuclei. Flow cytometry analysis was used to distinguish DNA from dead (dual stained with Dye A and B) and live (single stained with Dye B) cells.

5TGM1 tumors [3] = test: In vivo tumor growth analysis; set-up: species or system mouse
Experimental: (§3) 6-week old female immunodeficient NOD.CB17-Prkdcscid/NCrCrl (NOD/SCID) mice (Charles River) and immunocompetent C57BL/KaLwRijHsd (Envigo) mice were housed in an animal facility at the Dana-Farber Cancer Institute (DFCI). All experiments were performed after approval by the Animal Ethics Committee of the DFCI and performed using institutional guidelines.
To assess the effect of BTZ in the absence of an immune system, NOD/SCID mice were subcutaneously injected with 1×10^6 5TGM1 WT cells in a 1:1 ratio with Matrigel® (Corning); to assess BTZ in an immunocompetent host, C57BL/KaLwRijHsd mice were injected with 1×10^6 5TGM1 either WT or calrKO in the same ratio with Matrigel®. When tumor became measurable, mice (5/group) were randomized to receive either PBS or BTZ administered intra peritoneally (i.p.) 0.5 mg/kg twice/week for 2 weeks. Tumor sizes were measured and mice were sacrificed when tumors reached 2 cm in diameter or ulceration or major compromise in quality of life. A parallel experiment was performed to allow for tumor harvesting after two injections i.p. of BTZ for RNA-seq analysis, as detailed below.
as §3, with “(NOD/SCID)” for “(NOD/SCID) mice”, “in the” for “in an”, “at DFCI.” for “at the Dana-Farber Cancer Institute (DFCI).”
(§4) NOD/SCID and C57BL/KaLwRijHsd mice were subcutaneously (sc) injected with 1×10^6 5TGM1 either WT or Calr^KO cells in PBS. When tumor became measurable, mice were randomized to receive either PBS or BTZ administered intra peritoneally (i.p.) 0.5 mg/kg twice/week for 2 weeks. Tumor sizes were measured as previously described (46), and mice were sacrificed when tumors reached 2 cm in diameter or ulceration or major compromise in quality of life. A parallel experiment was performed to allow for tumor harvesting after two injections ip of BTZ for RNA-seq analysis, as detailed below. For BTZ and STING agonist combination studies, C57BL/KaLwRijHsd (n=5/group) and SCID/NOD (n=6/group) mice bearing 5TGM1 WT and C57BL/KaLwRijHsd mice (n=5/group) bearing 5TGM1 Sting^KO tumors were randomized to receive: PBS, BTZ (0.375 mg/kg twice a week for 2 weeks, i.p.), ADU-S100 (100 μg) administered in the peritumoral area (day 1 and 2), or a combination. Tumor sizes were measured as described above. A parallel experiment in C57BL/KaLwRijHsd mice was performed to allow for tumor harvesting after one administration of either BTZ or ADU-S100. Tumors were fixed in 10% formalin for 24 h, and then maintained in 70% ethanol prior to paraffin embedding and processing for IHC to detect CD3 (#nb600 Ab, Novus Bio).

[4] = test system: AMO1 and NCI-H929 multiple myeloma cell lines; test: Apoptosis assay (Annexin-V/7-AAD flow cytometry); format: cell-based, human; details: BTZ 1-10 nM, 16 h
Experimental: as §1, §2

5TGM1 cells = test: In vivo rechallenge of viable 5TGM1 cells in BTZ-treated mice; set-up: species or system mouse
Experimental: C57BL/KaLwRijHsd mice bearing 5TGM1 WT tumors were treated with BTZ as above. 2 weeks after observation of tumor regression, treated (n=5) as well as naïve mice (n=5), were rechallenged with viable 1×10^6 5TGM1 WT cells, and tumor growth was monitored over time. In a parallel experiment, spleens were harvested 2 weeks after tumor rechallenge from both groups to test T cell specific reactivity against multiple myeloma cell by ELISPOT assay (Translational Immunogenomics Laboratory, DFCI).

5TGM1 tumors [5] = test: IHC CD3 staining of tumors; format: in vivo, mouse; details: tumors retrieved after one administration of the drugs
Experimental: as §4

[6] = test system: UPR transducer PERK pathway; test: Western blot of UPR/PERK pathway; format: cell-based; details: AMO1 and 5TGM1 cells
Experimental: Cell lysis was performed in RIPA buffer (Boston Bio Products) supplemented with Halt™ protease and phosphatase inhibitor cocktail (Thermo Fisher Scientific). Immunoblot analysis was performed to evaluate expression levels of total protein and phospho-specific isoforms. SDS-PAGE was performed on NuPage™ Bis-Tris gels (ThermoFisher Scientific) using MOPS or MES running buffer. Gels were dry transferred onto 0.45 μm nitrocellulose membranes using the iBlot® Dry Blotting System (ThermoFisher Scientific). The following antibodies (Abs) were used and purchased from Cell Signaling Technology: CRT (Cat. #12238) and GABARAP (Cat. #13733). GAPDH (Cat. #2118) was used as loading controls.
Cell lysis was performed in RIPA buffer (Boston Bio Products) supplemented with Halt protease and phosphatase inhibitor cocktail (ThermoFisher Scientific). SDS-PAGE was performed on NuPage Bis-Tris gels (ThermoFisher Scientific) using MOPS or MES running buffer. Gels were dry transferred onto 0.45 μm nitrocellulose membranes using the iBlot® Dry Blotting System (ThermoFisher Scientific). The following Abs were purchased from Cell Signaling Technology: EIF2A (#5324), p-EIF2A (#3398), ATF4 (#11815), CHOP (2895), CALR (#12238), cGAS (#15102), TBK1 (#3504), pTBK1 (#5483), pIRF3 (#29047), STING (#13647). GAPDH (#2118) and B-ACTIN (#4970) were used as loading controls.

**Q.** How did the “multiple myeloma cell death, as measured by phosphatidylserine exposure” value ([1]; 5TGM1, BTZ 1-10 nM, 16 h) turn out when `CC(C)C[C@H](NC(=O)[C@H](Cc1ccccc1)NC(=O)c1cnccn1)B(O)O` [BTZ, bortezomib] was run?
**A.** induced multiple myeloma cell death in a dose-dependent manner

**Q.** What about the “apoptosis (annexin-V-positive cells)” value ([1]; 5TGM1 WT vs Calr^KO clones, BTZ 7.5 nM) of the same compound?
**A.** triggered apoptosis in both 5TGM1 WT cells and the Calr^KO clones at the same extent

**Q.** And the “micronuclei (DNA content in the cytoplasm)” value [2]?
**A.** dose-dependent increase of DNA content in the cytoplasm

**Q.** What about the tumor growth (5TGM1 tumors [3]; 5TGM1 Calr^KO tumors in immunocompetent mice, BTZ 0.5 mg/kg twice/week for 2 weeks) of the same compound?
**A.** antagonized in CALR^KO tumors; also recorded: abrogated in mice bearing CRT^KO tumors; also recorded: abrogated in immunocompetent mice bearing 5TGM1 Calr^KO tumors

**Q.** And the anti-tumor activity (5TGM1 tumors [3]; 5TGM1 Sting^KO tumors in immunocompetent mice)?
**A.** significantly abrogated against tumors lacking Sting; also recorded: significantly reduced in vivo against multiple myeloma tumors lacking Sting

**Q.** What about the tumor growth (5TGM1 tumors [3]; 5TGM1 WT in immunocompetent C57BL/KaLwRij mice, BTZ 0.5 mg/kg twice/week for 2 weeks i.p.) of the same compound?
**A.** induces tumor regression in the presence of the immune system; also recorded: more potent 5TGM1 tumor cell shrinkage in immunocompetent hosts; also recorded: inhibited growth of 5TGM1 WT cells engrafted in immunocompetent (C57BL/KaLwRij) mice (FIG. 19A) to a greater extent than when these cells were engrafted in immunodeficient hosts; also recorded: induces ICD in a syngeneic murine model of MM

**Q.** What about the anti-tumor effects (5TGM1 tumors [3]; 5TGM1 WT in immunodeficient NOD/SCID mice, BTZ 0.375 mg/kg, ADU-S100 100 ug day 1 and 2) of the same compound?
**A.** abrogated the anti-tumor effects

**Q.** What about the tumor growth (5TGM1 tumors [3]; 5TGM1 WT in immunodeficient SCID/NOD mice, BTZ 0.5 mg/kg twice/week for 2 weeks i.p.) of the same compound?
**A.** can efficiently delay tumor growth in immunodeficient mice

**Q.** And the “multiple myeloma cell death, as measured by phosphatidylserine exposure” value [4]?
**A.** induced multiple myeloma cell death in a dose-dependent manner

**Q.** What about the “mice alive at the end of observation” value (5TGM1 cells; day 30 after rechallenge) of the same compound?
**A.** 100%

**Q.** And the “tumor development after rechallenge” value (5TGM1 cells; live 5TGM1 WT injected two weeks after BTZ-induced tumor regression)?
**A.** did not result in tumor development

**Q.** What about the “CD3+ T cell infiltration within tumors (IHC)” value (5TGM1 tumors [5]) of the same compound?
**A.** increased CD3+ T cell infiltration within tumors

**Q.** And the “PERK pathway activation (p-eIF2-alpha, CHOP, ATF4)” value [6]?
**A.** activated the UPR transducer PERK pathway
